The text below walks through data of US20260085073A1, “PYRAZOLYLCARBOXAMIDE COMPOUNDS AND THEIR USE IN THERAPY” (Hotspot Therapeutics, Inc., priority 2022, published 2026).

This test deals with T1, MALT1 (Homo sapiens, UniProt Q9UDY8).
T1 construct: Avi-tagged FL MALT-1 (Pharmaron, stored at −70° C.); Avi-tag
T1 sequence (Q9UDY8 1-824): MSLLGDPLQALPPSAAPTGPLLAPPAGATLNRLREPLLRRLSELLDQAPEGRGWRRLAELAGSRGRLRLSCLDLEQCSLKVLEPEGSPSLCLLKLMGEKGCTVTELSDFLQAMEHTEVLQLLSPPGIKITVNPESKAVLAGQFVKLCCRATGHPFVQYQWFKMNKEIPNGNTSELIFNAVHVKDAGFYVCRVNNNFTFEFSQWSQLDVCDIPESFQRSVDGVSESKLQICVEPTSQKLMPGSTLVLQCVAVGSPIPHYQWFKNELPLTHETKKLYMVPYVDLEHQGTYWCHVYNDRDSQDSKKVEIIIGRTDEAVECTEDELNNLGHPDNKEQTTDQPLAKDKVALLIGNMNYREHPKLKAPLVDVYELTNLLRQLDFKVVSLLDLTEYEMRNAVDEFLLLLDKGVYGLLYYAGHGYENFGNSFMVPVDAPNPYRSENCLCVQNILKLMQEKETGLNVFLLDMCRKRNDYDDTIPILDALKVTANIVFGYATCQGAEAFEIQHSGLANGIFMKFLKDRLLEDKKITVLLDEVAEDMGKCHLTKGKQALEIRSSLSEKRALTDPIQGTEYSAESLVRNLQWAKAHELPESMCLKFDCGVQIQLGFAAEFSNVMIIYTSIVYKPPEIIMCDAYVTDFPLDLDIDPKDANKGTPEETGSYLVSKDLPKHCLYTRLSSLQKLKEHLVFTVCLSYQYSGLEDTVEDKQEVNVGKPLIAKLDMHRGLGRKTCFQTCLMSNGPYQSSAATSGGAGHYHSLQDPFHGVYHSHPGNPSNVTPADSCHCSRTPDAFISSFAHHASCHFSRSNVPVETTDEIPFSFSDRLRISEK
Description: MALT1 inhibition assay (MALT-1 Fluorogenic Peptide Cleavage Assay, Ac-LRSR-AMC substrate). Conditions: Avi-tagged FL MALT-1, 30 min pre-incubation, 90 min reaction at room temperature, fluorescence intensity. The class given is biochemical. The essentials:
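Full-length Avi-tagged MALT1 pre-incubated 30 min at room temperature with compounds (2% DMSO final) in HEPES pH 6.89, sodium citrate, TCEP, EDTA, CHAPS buffer. Ac-LRSR-AMC added from 50 µM (Km) or […] working stocks; 90 min at room temperature, AMC fluorescence (ex 342/em 441 nm); IC50 from % inhibition curves.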

As a reminder, the IC50 is the concentration at which inhibition is half-maximal. A lower IC50 goes with greater potency in that assay. Consider `Cn1nc(-c2ccc(F)c3nccn23)c(C(F)(F)F)c1C(=O)Nc1ccnc(C(F)(F)F)c1` [Compound I-291], for which the concentration for half-maximal inhibition (IC50) lay in the range of 500 to 2500 nM.
In the case of `Cn1nc(Oc2ccccc2)c(C(F)(F)F)c1C(=O)Nc1ccnc(C(F)(F)F)c1` [Compound I-206], the IC50 is 500 to 2500 nM.
Compound `Cn1nc(-c2cnc3ncccn23)c(C(F)(F)F)c1C(=O)Nc1ccnc(C(F)(F)F)c1` [Compound I-15] displayed a half-inhibitory concentration (IC50) of more than 10000 nM.
With `O=C1c2c(C(F)(F)F)c(-c3ccccc3)nn2CCCN1c1ccnc(C(F)(F)F)c1` [Compound I-183, 2-phenyl-3-(trifluoromethyl)-5-(2-(trifluoromethyl)pyridin-4-yl)-5,6,7,8-tetrahydro-4H-pyrazolo[1,5-a][1,4]diazepin-4-one], the IC50 was more than 10000 nM.
The value for `Cn1nc(-c2n[nH]c3cnccc23)c(C(F)(F)F)c1C(=O)Nc1ccnc(C(F)(F)F)c1` [Compound I-201] was more than 10000 nM; that for `Cn1nc(-c2cnc3n2CCOC3)c(C(F)(F)F)c1C(=O)Nc1ccnc(C(F)(F)F)c1` [Compound I-71] was more than 10000 nM.
Take `Cn1nc(-c2cncc3sccc23)c(C(F)(F)F)c1C(=O)Nc1ccnc(C(F)(F)F)c1` [Compound I-42, 1-methyl-3-(thieno[2,3-c]pyridin-4-yl)-4-(trifluoromethyl)-N-(2-(trifluoromethyl)pyridin-4-yl)-1H-pyrazole-5-carboxamide]: the IC50 is less than 500 nM.
In the case of `Cn1nc(-c2ccccc2Cl)c(C(F)(F)F)c1C(=O)Nc1ccnc(C(F)(F)F)c1` [Compound I-59] it was less than 500 nM; in that of `[2H]C([2H])([2H])n1nc(-c2ccccc2)c(C(F)(F)F)c1C(=O)Nc1cnc(-n2nccn2)c(Cl)c1` [Compound I-165], less than 500 nM; in that of `Cn1nc(-c2cccc3ccoc23)c(C(F)(F)F)c1C(=O)Nc1ccnc(C(F)(F)F)c1` [Compound I-29], less than 500 nM.
`Cn1nc(-c2cccc3ccoc23)c(C(F)(F)F)c1C(=O)Nc1cnc(-n2nccn2)c(C#N)c1` [Compound I-30] gave an IC50 of less than 500 nM.
The value for `Cn1nc(-c2ccccc2)c(C2CC2)c1C(=O)Nc1ccnc(C(F)(F)F)c1` [Compound I-205] was 500 to 2500 nM; that for `Cn1nc(-c2cccc(Cl)c2Cl)c(C(F)(F)F)c1C(=O)Nc1ccnc(C(F)(F)F)c1` [Compound I-89] was 500 to 2500 nM.
In the case of `COc1nc2cccc(-c3nn(C)c(C(=O)Nc4ccnc(C(F)(F)F)c4)c3C(F)(F)F)c2s1` [Compound I-293] it was more than 10000 nM.
Consider `Cn1nc(-c2cccc3c2OCCN3)c(C(F)(F)F)c1C(=O)Nc1ccnc(C(F)(F)F)c1` [Compound I-51], for which the IC50 is more than 10000 nM.
`Cc1ccc(-c2nn(C)c(C(=O)Nc3ccnc(C(F)(F)F)c3)c2C(F)(F)F)c(Cl)c1` [Compound I-18] returned an IC50 of 500 to 2500 nM.
`Cn1nc2c(c1C(=O)Nc1ccnc(C(F)(F)F)c1)CCc1ccccc1-2` [Compound I-258] had an IC50 of 2500 to 10000 nM.
The value for `Cn1nc(-c2ccccc2)c(C(F)(F)F)c1C(=O)Nc1cc(C2CC2)ccn1` [Compound I-137] was more than 10000 nM; that for `Cn1nc(-c2cccc3cnsc23)c(C(F)(F)F)c1C(=O)Nc1ccnc(C(F)(F)F)c1` [Compound I-67] was more than 10000 nM; that for `Cn1nc(-c2cccc3cnccc23)c(C(F)(F)F)c1C(=O)Nc1cnc(-n2nccn2)c(Cl)c1` [Compound I-140, N-(5-chloro-6-(2H-1,2,3-triazol-2-yl)pyridin-3-yl)-3-(isoquinolin-5-yl)-1-methyl-4-(trifluoromethyl)-1H-pyrazole-5-carboxamide] was less than 500 nM.
`O=C(Nc1cnc(-n2nccn2)c(Cl)c1)c1nn(C(F)F)c(-c2ccccc2)c1C(F)(F)F` [Compound I-180] displayed a concentration for half-maximal inhibition (IC50) of less than 500 nM.
The value for `Cn1nc(-c2n[nH]c3ncccc23)c(C(F)(F)F)c1C(=O)Nc1ccnc(C(F)(F)F)c1` [Compound I-242] was 2500 to 10000 nM; that for `Cn1nc(-c2cccc3nccn23)c(C(F)(F)F)c1C(=O)Nc1cnc(-n2nccn2)c(Cl)c1` [Compound I-163] was less than 500 nM.
